The assay relates to BDF1 mice, P388 leukemia ip, median survival T/C. Nature of the assay: NCI In Vivo Anticancer Drug Screen. Data for tumor model P388 Leukemia (intraperitoneal) in B6D2F1 (BDF1) mice. The following applies: endpoint: median survival time, higher = longer survival. An outline of the steps:
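T/C = treated-group survival ÷ vehicle-control survival; tumour transplanted into mice before dosing.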

Setting [1] is: dose: 100.0 mg/kg/injection, schedule: Q04DX003 (ip), vehicle: Klucel (hydroxypropylcellulose) (HPC).
[2] abbreviates: dose: 200.0 mg/kg/injection, schedule: Q04DX003 (ip), vehicle: Klucel (hydroxypropylcellulose) (HPC).
[3] abbreviates: dose: 400.0 mg/kg/injection, schedule: Q04DX003 (ip), vehicle: Klucel (hydroxypropylcellulose) (HPC).
Setting [4] is: dose: 50.0 mg/kg/injection, schedule: Q01DX009 (ip), vehicle: saline with Tween-80.
The mark [5] stands for this setting: dose: 100.0 mg/kg/injection, schedule: Q01DX009 (ip), vehicle: saline with Tween-80.
[6] abbreviates: dose: 200.0 mg/kg/injection, schedule: Q01DX009 (ip), vehicle: saline with Tween-80.
The mark [7] stands for this setting: dose: 100.0 mg/kg/injection, schedule: Q04DX003 (ip), vehicle: saline with Tween-80.
[8] abbreviates: dose: 200.0 mg/kg/injection, schedule: Q04DX003 (ip), vehicle: saline with Tween-80.
Where [9] appears, read: dose: 200.0 mg/kg/injection, schedule: Q01DX009 (ip), vehicle: Klucel (hydroxypropylcellulose) (HPC).
[10] abbreviates: dose: 400.0 mg/kg/injection, schedule: Q01DX009 (ip), vehicle: Klucel (hydroxypropylcellulose) (HPC).
The mark [11] stands for this setting: dose: 400.0 mg/kg/injection, schedule: Q04DX003 (ip), vehicle: saline with Tween-80.
Setting [12] is: dose: 100.0 mg/kg/injection, schedule: Q01DX009 (ip), vehicle: other.
[13] abbreviates: dose: 100.0 mg/kg/injection, schedule: Q04DX003 (ip), vehicle: saline.
The mark [14] stands for this setting: dose: 200.0 mg/kg/injection, schedule: Q04DX003 (ip), vehicle: saline.
Where [15] appears, read: dose: 400.0 mg/kg/injection, schedule: Q04DX003 (ip), vehicle: saline.

Values joined by “and” are separate entries in the source; they are usually repeats but may differ in a detail not shown here. Equal values may be shown once. Inconclusive results and toxic doses are left out.

Regarding `CC(c1ccccc1)C1N(c2ccccc2)CCN1c1ccccc1` (configuration not stated), the T/C runs as follows: (dose: 50.0 mg/kg/injection, schedule: Q04DX003 (ip), vehicle: Klucel (hydroxypropylcellulose) (HPC)) 107 % of control; under setting [1], 96 % of control; under setting [2], 107 % of control; under setting [3], 111 % of control.
Take `CC(=O)OC1=C2OC(=O)C3(C2C=CC=C1)C1C=CC=CC13` (configuration not stated): the T/C is 116 % of control under setting [4], 116 % of control under setting [5] and 120 % of control under setting [6].
Regarding `S=c1[nH]cc2cnccn12`, the T/C was 110 % of control (dose: 25.0 mg/kg/injection, schedule: Q01DX009 (ip), vehicle: saline with Tween-80); 115 % of control under setting [4]; 100 % of control under setting [7]; 105 % of control under setting [6]; 110 % of control under setting [8].
`COc1ccc2c(c1OC)CN1CCc3cc4c(cc3C1=C2)OCO4`: the T/C by setting is: (dose: 50.0 mg/kg/injection, schedule: Q01DX005 (ip), vehicle: saline with Tween-80) 102 % of control; (dose: 100.0 mg/kg/injection, schedule: Q01DX005 (ip), vehicle: saline with Tween-80) 90 % of control; (dose: 200.0 mg/kg/injection, schedule: Q01DX005 (ip), vehicle: saline with Tween-80) 91 % of control.
With `O=C(CC(NC(=O)OCc1ccccc1)C(=O)O)OCc1ccccc1` (configuration not stated), the T/C reads like this: (dose: 50.0 mg/kg/injection, schedule: Q01DX009 (ip), vehicle: Klucel (hydroxypropylcellulose) (HPC)) 122 % of control; (dose: 100.0 mg/kg/injection, schedule: Q01DX009 (ip), vehicle: Klucel (hydroxypropylcellulose) (HPC)) 111 % of control; under setting [7], 104 % of control; under setting [9], 111 % of control; under setting [8], 100 % of control; (dose: 264.0 mg/kg/injection, schedule: Q04DX003 (ip), vehicle: saline with Tween-80) 100 % of control. Besides, the T/C reads like this: under setting [10], 94 % of control; under setting [11], 100 % of control and 109 % of control.
For the molecule `CCC(=O)OC1CC2C3CCC4=CC(=O)CCC4(C)C3CCC2(C)C1OC(=O)CC` (configuration not stated), the T/C under setting [1] is 100 % of control; the T/C under setting [9] is 109 % of control; the T/C under setting [2] was 104 % of control; the T/C under setting [10] was 91 % of control and 122 % of control; the T/C under setting [3] was 104 % of control.
Consider `O=C(O)CCCCCNC(=O)OCc1ccccc1`, for which the T/C is, setting by setting: (dose: 100.0 mg/kg/injection, schedule: Q01DX009 (ip), vehicle: gum acacia) 112 % of control; (dose: 100.0 mg/kg/injection, schedule: Q04DX003 (ip), vehicle: gum acacia) 100 % of control; (dose: 200.0 mg/kg/injection, schedule: Q01DX009 (ip), vehicle: gum acacia) 104 % of control; (dose: 200.0 mg/kg/injection, schedule: Q04DX003 (ip), vehicle: gum acacia) 100 % of control; (dose: 400.0 mg/kg/injection, schedule: Q01DX009 (ip), vehicle: gum acacia) 108 % of control; (dose: 400.0 mg/kg/injection, schedule: Q04DX003 (ip), vehicle: gum acacia) 116 % of control.
Consider `N#Cc1ccccc1[N+](=O)[O-]`, for which the T/C is 100 % of control (dose: 4.0 mg/kg/injection, schedule: Q01DX010 (ip), vehicle: carboxymethylcellulose (CMC)) and 100 % of control (dose: 16.0 mg/kg/injection, schedule: Q01DX010 (ip), vehicle: carboxymethylcellulose (CMC)).
`CC(=O)OCC(=O)[C@@]1(O)[C@H](C)C[C@H]2[C@@H]3C=C(C)C4=Cc5c(cnn5-c5ccc(F)cc5)C[C@]4(C)[C@H]3[C@@H](O)C[C@@]21C`: the T/C is, setting by setting: (dose: 0.19 mg/kg/injection, schedule: Q01DX009 (sc), vehicle: steriod suspending solution) 120 % of control; (dose: 0.39 mg/kg/injection, schedule: Q01DX009 (sc), vehicle: steriod suspending solution) 110 % of control; (dose: 0.58 mg/kg/injection, schedule: Q04DX003 (sc), vehicle: steriod suspending solution) 118 % of control; (dose: 0.78 mg/kg/injection, schedule: Q01DX009 (sc), vehicle: steriod suspending solution) 90 % of control; (dose: 1.17 mg/kg/injection, schedule: Q04DX003 (sc), vehicle: steriod suspending solution) 118 % of control; (dose: 2.34 mg/kg/injection, schedule: Q04DX003 (sc), vehicle: steriod suspending solution) 118 % of control. Further, the T/C (dose: 3.4 mg/kg/injection, schedule: Q04DX003 (sc), vehicle: steriod suspending solution) is 100 % of control; the T/C (dose: 5.3 mg/kg/injection, schedule: Q04DX003 (sc), vehicle: steriod suspending solution) is 90 % of control; the T/C (dose: 6.0 mg/kg/injection, schedule: Q04DX003 (ip), vehicle: Klucel (hydroxypropylcellulose) (HPC)) is 105 % of control; the T/C (dose: 12.0 mg/kg/injection, schedule: Q04DX003 (ip), vehicle: Klucel (hydroxypropylcellulose) (HPC)) is 105 % of control; the T/C (dose: 25.0 mg/kg/injection, schedule: Q04DX003 (ip), vehicle: Klucel (hydroxypropylcellulose) (HPC)) was 90 % of control; the T/C under setting [1] is 90 % of control.
Turning to `Cc1nc2nccnc2[nH]1`, the T/C was 91 % of control under setting [5]; 91 % of control under setting [6]; 100 % of control (dose: 400.0 mg/kg/injection, schedule: Q01DX009 (ip), vehicle: saline with Tween-80).
As to `CC1(C)N=C(N)N=C(N)N1c1cccc(Br)c1`, the T/C runs as follows: (dose: 2.7 mg/kg/injection, schedule: Q04DX003 (ip), vehicle: saline) 100 % of control; (dose: 4.0 mg/kg/injection, schedule: Q04DX003 (ip), vehicle: saline) 90 % of control; (dose: 33.0 mg/kg/injection, schedule: Q04DX003 (ip), vehicle: saline) 168 % of control; (dose: 50.0 mg/kg/injection, schedule: Q04DX003 (ip), vehicle: saline) 177 % of control and 179 % of control; (dose: 75.0 mg/kg/injection, schedule: Q04DX003 (ip), vehicle: saline) 90 % of control.
As to `CC1(C)C2CCC(CN)C1C2` (configuration not stated), the T/C under setting [12] is 106 % of control.
On to `CC(=O)Oc1cc2c(cc1OC(C)=O)C(Br)CCCC2=O` (configuration not stated), for which the T/C reads like this: (dose: 75.0 mg/kg/injection, schedule: Q04DX003 (ip), vehicle: other) 95 % of control; (dose: 150.0 mg/kg/injection, schedule: Q04DX003 (ip), vehicle: other) 95 % of control; (dose: 300.0 mg/kg/injection, schedule: Q04DX003 (ip), vehicle: other) 109 % of control.
Consider `CCOc1ccc(Br)cc1/C=N\N=C\c1cc(Br)ccc1OCC`, for which the T/C by setting is: (dose: 6.0 mg/kg/injection, schedule: Q01DX001 (ip), vehicle: Klucel (hydroxypropylcellulose) (HPC)) 87 % of control; (dose: 12.0 mg/kg/injection, schedule: Q01DX001 (ip), vehicle: Klucel (hydroxypropylcellulose) (HPC)) 95 % of control; (dose: 25.0 mg/kg/injection, schedule: Q01DX001 (ip), vehicle: Klucel (hydroxypropylcellulose) (HPC)) 86 % of control.
For the molecule `C/C(=N/N(C)C)c1ccccn1`, the T/C runs as follows: under setting [5], 103 % of control; under setting [7], 104 % of control; under setting [6], 100 % of control; under setting [8], 100 % of control; under setting [11], 100 % of control.
With `CS(=O)CC(O)(c1ccccc1)c1ccncc1` (configuration not stated), the T/C under setting [4] was 99 % of control, the T/C under setting [5] is 112 % of control and the T/C under setting [6] is 110 % of control.
Turning to `NC(=O)NCCNC(N)=O`, the T/C reads like this: (dose: 100.0 mg/kg/injection, schedule: Q01DX009 (ip), vehicle: saline) 95 % of control; under setting [13], 112 % of control; (dose: 200.0 mg/kg/injection, schedule: Q01DX009 (ip), vehicle: saline) 95 % of control; under setting [14], 95 % of control; (dose: 400.0 mg/kg/injection, schedule: Q01DX009 (ip), vehicle: saline) 91 % of control; under setting [15], 112 % of control.
With `Cc1cc(O)c2c(c1O)C(=O)c1ccccc1C2=O`, the T/C runs as follows: under setting [13], 91 % of control; under setting [14], 95 % of control; under setting [15], 95 % of control.
In the case of `CCOC(=O)c1ccc(NC(=O)Nc2nc(C)cs2)cc1`, the T/C was 103 % of control (dose: 25.0 mg/kg/injection, schedule: Q01DX009 (ip), vehicle: other) and 99 % of control under setting [12].

For the origin of these results see PubChem BioAssay AID328 (DTP/NCI, 2004).
